Measured values published in article PMC10589286, “Insights into the missing apiosylation step in flavonoid apiosides biosynthesis of Leguminosae plants” (Nature Communications, 2023).

What was measured:
GuApiGT = biological target: T1, GuApiGT (Glycyrrhiza uralensis, UniProt A0AA51Z2W4, DEL371-371/H373Q); experiment: HPLC/MS conversion; format: biochemical; settings: 0.5 mM UDP-Xyl, acceptor isoliquiritin (2) 0.1 mM, pH 8.0, 37 °C, 3 h; printed S371/H373Q (S371 deleted)
T1 construct: full length, 454 aa (ORF 1365 bp), pET-28a(+) His-tagged, E. coli BL21(DE3), nickel-purified

GiApiGT = biological target: T2, GiApiGT (Glycyrrhiza inflata, UniProt A0AA51YKD5); experiment: enzyme catalysis, LC/MS; format: biochemical; settings: sugar donor supplied by UAXS system; acceptor only in figure
T2 construct: full length, pET-28a(+), E. coli BL21(DE3), nickel-purified
T2 sequence (A0AA51YKD5 1-454): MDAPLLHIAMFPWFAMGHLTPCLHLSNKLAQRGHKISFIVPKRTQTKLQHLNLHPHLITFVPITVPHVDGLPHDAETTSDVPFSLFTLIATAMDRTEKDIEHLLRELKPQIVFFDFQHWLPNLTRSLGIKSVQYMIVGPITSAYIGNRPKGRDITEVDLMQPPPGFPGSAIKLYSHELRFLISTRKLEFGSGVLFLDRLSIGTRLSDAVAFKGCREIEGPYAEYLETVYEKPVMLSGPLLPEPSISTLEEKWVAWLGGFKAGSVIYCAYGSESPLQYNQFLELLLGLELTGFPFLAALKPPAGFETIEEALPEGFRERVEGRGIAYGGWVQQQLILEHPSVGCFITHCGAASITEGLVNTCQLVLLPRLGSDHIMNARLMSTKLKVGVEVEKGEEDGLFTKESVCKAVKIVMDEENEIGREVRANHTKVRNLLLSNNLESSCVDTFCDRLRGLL

PtApiGT = biological target: T3, PtApiGT (Pueraria montana, UniProt A0AA51YHU3); experiment: enzyme catalysis, LC/MS; format: biochemical; settings: sugar donor supplied by UAXS system; acceptor only in figure
T3 construct: full length, pET-28a(+), E. coli BL21(DE3), nickel-purified
T3 sequence (A0AA51YHU3 1-457): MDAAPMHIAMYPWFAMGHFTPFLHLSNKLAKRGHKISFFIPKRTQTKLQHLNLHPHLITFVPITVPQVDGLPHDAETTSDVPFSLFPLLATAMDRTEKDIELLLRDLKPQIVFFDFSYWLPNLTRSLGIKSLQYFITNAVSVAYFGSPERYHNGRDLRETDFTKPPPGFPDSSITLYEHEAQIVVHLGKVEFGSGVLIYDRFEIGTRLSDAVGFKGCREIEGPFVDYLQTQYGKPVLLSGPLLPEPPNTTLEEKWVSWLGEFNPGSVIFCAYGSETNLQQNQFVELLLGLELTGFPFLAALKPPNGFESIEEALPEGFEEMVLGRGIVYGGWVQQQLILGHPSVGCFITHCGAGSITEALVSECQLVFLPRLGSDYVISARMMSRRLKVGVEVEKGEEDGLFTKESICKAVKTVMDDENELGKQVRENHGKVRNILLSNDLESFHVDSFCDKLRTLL

GgApiGT = biological target: T4, GgApiGT (Glycyrrhiza glabra, UniProt A0AA51YKR8); experiment: enzyme catalysis, LC/MS; format: biochemical; settings: sugar donor supplied by UAXS system; acceptor only in figure
T4 construct: full length, pET-28a(+), E. coli BL21(DE3), nickel-purified
T4 sequence (A0AA51YKR8 1-454): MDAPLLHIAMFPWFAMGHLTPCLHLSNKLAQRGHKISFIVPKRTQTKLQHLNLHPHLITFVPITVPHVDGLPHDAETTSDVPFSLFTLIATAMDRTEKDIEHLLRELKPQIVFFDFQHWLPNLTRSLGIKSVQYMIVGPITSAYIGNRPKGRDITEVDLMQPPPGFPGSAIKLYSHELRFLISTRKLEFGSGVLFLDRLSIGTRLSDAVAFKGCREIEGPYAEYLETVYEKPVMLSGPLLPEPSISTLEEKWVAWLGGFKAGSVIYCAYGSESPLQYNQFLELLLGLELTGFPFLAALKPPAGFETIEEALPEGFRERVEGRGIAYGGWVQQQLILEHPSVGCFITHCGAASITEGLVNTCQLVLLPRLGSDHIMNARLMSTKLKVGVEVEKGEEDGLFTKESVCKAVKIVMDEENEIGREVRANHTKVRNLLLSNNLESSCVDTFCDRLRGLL

SsApiGT = biological target: T5, SsApiGT (Spatholobus suberectus, UniProt A0AA51YHU4); experiment: enzyme catalysis, LC/MS; format: biochemical; settings: sugar donor supplied by UAXS system; acceptor only in figure
T5 construct: full length, synthesized gene, pET-28a(+), E. coli BL21(DE3), nickel-purified
T5 sequence (A0AA51YHU4 1-448): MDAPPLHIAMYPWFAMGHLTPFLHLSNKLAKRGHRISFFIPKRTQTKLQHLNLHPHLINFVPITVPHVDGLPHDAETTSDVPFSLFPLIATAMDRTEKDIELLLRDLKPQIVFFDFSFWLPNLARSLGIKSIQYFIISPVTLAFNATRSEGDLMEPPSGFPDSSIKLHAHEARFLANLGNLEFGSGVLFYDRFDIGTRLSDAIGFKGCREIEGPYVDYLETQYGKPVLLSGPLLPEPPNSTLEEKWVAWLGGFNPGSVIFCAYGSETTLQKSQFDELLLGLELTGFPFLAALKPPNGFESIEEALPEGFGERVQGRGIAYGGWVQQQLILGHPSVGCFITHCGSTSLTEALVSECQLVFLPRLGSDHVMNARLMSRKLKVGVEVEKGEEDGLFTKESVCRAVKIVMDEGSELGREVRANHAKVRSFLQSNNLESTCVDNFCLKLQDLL

[1] = substrate: O=C(/C=C/c1ccc(O[C@@H]2O[C@H](CO)[C@@H](O)[C@H](O)[C@H]2O)cc1)c1ccc(O)cc1O; experiment: HPLC, Michaelis-Menten fit; format: biochemical, Glycyrrhiza uralensis; settings: 480 µmol/L saturated UDP-apiose, pH 8.0 phosphate, 37 °C, 15 min

T1 sequence (A0AA51Z2W4 entry or part of it DEL371-371/H373Q): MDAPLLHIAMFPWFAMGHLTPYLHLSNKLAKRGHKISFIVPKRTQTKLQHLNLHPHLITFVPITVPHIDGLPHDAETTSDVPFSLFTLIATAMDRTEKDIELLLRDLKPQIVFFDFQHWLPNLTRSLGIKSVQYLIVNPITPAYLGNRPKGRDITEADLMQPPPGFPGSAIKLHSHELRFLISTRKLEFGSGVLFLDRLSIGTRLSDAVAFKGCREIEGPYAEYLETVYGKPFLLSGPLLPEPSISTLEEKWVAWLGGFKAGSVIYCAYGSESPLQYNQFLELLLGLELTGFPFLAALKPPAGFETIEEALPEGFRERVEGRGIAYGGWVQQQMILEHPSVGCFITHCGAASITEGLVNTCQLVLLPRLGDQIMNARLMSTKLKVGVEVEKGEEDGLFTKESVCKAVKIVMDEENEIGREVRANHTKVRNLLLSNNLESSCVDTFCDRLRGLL

## O=c1ccn([C@@H]2O[C@H](COP(=O)(O)OP(=O)(O)O[C@H]3OC[C@@H](O)[C@H](O)[C@H]3O)[C@@H](O)[C@H]2O)c(=O)[nH]1 [UDP-Xyl]
GuApiGT
  HPLC/MS conversion: the S371/H373Q mutant could accept UDP-Xyl as sugar donor

## O=c1ccn([C@@H]2O[C@H](COP(=O)(O)OP(=O)(O)O[C@H]3OC[C@](O)(CO)[C@H]3O)[C@@H](O)[C@H]2O)c(=O)[nH]1 [UDP-Api]
GiApiGT
  enzyme catalysis, LC/MS: identified them as apiosyltransferases by enzyme catalysis reactions
PtApiGT
  enzyme catalysis, LC/MS: identified them as apiosyltransferases by enzyme catalysis reactions
GgApiGT
  enzyme catalysis, LC/MS: identified them as apiosyltransferases by enzyme catalysis reactions
SsApiGT
  enzyme catalysis, LC/MS: identified them as apiosyltransferases by enzyme catalysis reactions

B1: GuApiGT (Glycyrrhiza uralensis) (protein)
chain: MDAPLLHIAMFPWFAMGHLTPYLHLSNKLAKRGHKISFIVPKRTQTKLQHLNLHPHLITFVPITVPHIDGLPHDAETTSDVPFSLFTLIATAMDRTEKDIELLLRDLKPQIVFFDFQHWLPNLTRSLGIKSVQYLIVNPITPAYLGNRPKGRDITEADLMQPPPGFPGSAIKLHSHELRFLISTRKLEFGSGVLFLDRLSIGTRLSDAVAFKGCREIEGPYAEYLETVYGKPFLLSGPLLPEPSISTLEEKWVAWLGGFKAGSVIYCAYGSESPLQYNQFLELLLGLELTGFPFLAALKPPAGFETIEEALPEGFRERVEGRGIAYGGWVQQQMILEHPSVGCFITHCGAASITEGLVNTCQLVLLPRLGSDHIMNARLMSTKLKVGVEVEKGEEDGLFTKESVCKAVKIVMDEENEIGREVRANHTKVRNLLLSNNLESSCVDTFCDRLRGLL
notes: full length, 454 aa (ORF 1365 bp), pET-28a(+) His-tagged, E. coli BL21(DE3), nickel-purified
[1]
  Km: 2.59 ± 0.23 µM
  kcat: 0.11 s⁻¹
